Target: T1, Recombinant human CETP (Homo sapiens, UniProt P11597)
T1 construct: made in house; host or cells: CHO cells (secreted into conditioned medium)
T1 sequence (P11597 18-493): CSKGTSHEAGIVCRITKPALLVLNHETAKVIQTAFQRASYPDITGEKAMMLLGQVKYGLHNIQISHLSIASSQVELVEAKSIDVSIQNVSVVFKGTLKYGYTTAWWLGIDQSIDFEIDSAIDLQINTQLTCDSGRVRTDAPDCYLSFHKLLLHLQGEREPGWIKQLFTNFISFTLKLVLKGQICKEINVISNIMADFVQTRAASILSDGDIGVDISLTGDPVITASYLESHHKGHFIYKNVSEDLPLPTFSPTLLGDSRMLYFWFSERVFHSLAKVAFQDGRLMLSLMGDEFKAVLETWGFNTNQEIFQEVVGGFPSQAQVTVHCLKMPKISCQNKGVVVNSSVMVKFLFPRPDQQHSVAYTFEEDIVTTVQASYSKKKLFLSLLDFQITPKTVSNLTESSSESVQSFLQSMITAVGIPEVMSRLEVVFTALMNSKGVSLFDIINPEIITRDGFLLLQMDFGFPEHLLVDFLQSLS
Assay: CETP in vitro assay (fluorometric assay, Roar Biomedical; cholesterol ester transfer from HDL to LDL)
Assay type: biochemical
Conditions: recombinant human CETP from CHO cells; 3 hours at 37° C.; fluorescence 485/535 nm; compound concentrations between 1 nM and 30 μM; read-out: IC50 values for inhibition of CETP
Summary of the method: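 Fluorometric transfer assay using donor and acceptor particles with recombinant human CETP partially purified from conditioned medium of CETP-expressing CHO cells. Compound in DMSO incubated 3 hours at 37° C; fluorescence Ex 485/Em 535 nm. IC50 from dose-effect curves over 1 nM to 30 μM.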

IC50: 410 nM
Structure (SMILES): CC(C)c1nc2c(c3c1[C@@H](c1ccc(C(F)(F)F)cc1F)OC31CCOCC1)[C@@H](O)CC(C)(C)[C@@H]2O [Example 6, (3S,6S,9S)-3-(2-fluoro-4-(trifluoromethyl)phenyl)-4-isopropyl-7,7-dimethyl-2′,3′,5′,6,6′,7,8,9-octahydro-3H-spiro[furo[3,4-c]quinoline-1,4′-pyran]-6,9-diol]
